Molecular target: human GPR40 (Homo sapiens, UniProt O14842)
Experiment: FDSS-based intracellular calcium assay (Human GPR40 in vitro assay)
Type: cell-based
Set-up: 3xFLAG; expressed in transfected cells
Conditions: intracellular Ca2+ response, cells expressing GPR40; read-out: hGPR40 EC50
Procedure: FDSS-based Intracellular Calcium Assay
Compounds are dissolved in DMSO and diluted to desired concentrations with assay buffer and added to the cells as 3× solution (20 μL per well). Run fluorescence/luminescence reader FDSS (Hamamatsu) to read intracellular Ca^2+ response.

Chain of human GPR40 (O14842 whole entry): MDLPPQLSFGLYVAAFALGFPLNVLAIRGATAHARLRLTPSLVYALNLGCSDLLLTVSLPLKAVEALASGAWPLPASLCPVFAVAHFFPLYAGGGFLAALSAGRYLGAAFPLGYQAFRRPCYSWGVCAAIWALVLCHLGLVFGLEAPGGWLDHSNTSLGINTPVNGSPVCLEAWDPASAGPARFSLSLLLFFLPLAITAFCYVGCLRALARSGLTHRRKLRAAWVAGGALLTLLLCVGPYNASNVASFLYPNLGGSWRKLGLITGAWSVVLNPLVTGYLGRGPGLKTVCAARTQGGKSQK

`COc1cncc(N2CCC(Oc3ccc(N4N=C(C(F)(F)F)[C@@H](C)[C@@H]4CC(=O)O)cc3)CC2)n1` [Example 53, 2-((4S,5S)-1-(4-((1-(6-methoxypyrazin-2-yl)piperidin-4-yl)oxy)phenyl)-4-methyl-3-(trifluoromethyl)-4,5-dihydro-1H-pyrazol-5-yl)acetic acid] and `C[C@@H]1C(C(F)(F)F)=NN(c2ccc(OC3CCN(c4cnc(Cl)cn4)CC3)cc2)[C@H]1CC(=O)O` [Example 55, 2-((4S,5S)-1-(4-((1-(5-chloropyrazin-2-yl)piperidin-4-yl)oxy)phenyl)-4-methyl-3-(trifluoromethyl)-4,5-dihydro-1H-pyrazol-5-yl)acetic acid] are within 1.5-fold of each other in EC50: 4200 nM for the first, 6250 nM for the second.

Going from `COCC1CN(c2cc(OC)ncc2Cl)CCC1Oc1ccc(N2N=C(C(F)(F)F)[C@@H](C)[C@@H]2CC(=O)O)cc1` (single isomer, unassigned) [Example B3, Isomer 2] to `COc1cc(N2CC[C@@H](Oc3ccc(N4N=C(C(F)(F)F)[C@@H](C)[C@@H]4CC(=O)O)cc3)[C@H](CO)C2)c(Cl)cn1` [Example B1, 2-((4S,5S)-1-(4-(((3S,4R)-1-(5-chloro-2-methoxypyridin-4-yl)-3-(hydroxymethyl)piperidin-4-yl)oxy)phenyl)-4-methyl-3-(trifluoromethyl)-4,5-dihydro-1H-pyrazol-5-yl)acetic acid], the EC50 rises from 768 nM to 2480 nM (3.2-fold). The first is the more potent here.

`CCOc1ccc(F)c(N2CCC(Oc3ccc(N4N=C(C#N)C(C)C4CC(=O)O)cc3)C(C)C2)c1` (single isomer, unassigned) [Example B7, Isomer 2, 2-(3-Cyano-1-(4-((1-(5-ethoxy-2-fluorophenyl)-3-methylpiperidin-4-yl)oxy)phenyl)-4-methyl-4,5-dihydro-1H-pyrazol-5-yl)acetic acid] and `COc1cc(N2CCC(Oc3ccc(N4N=C(C#N)C(C)C4CC(=O)O)cc3)C(C)C2)c(Cl)cn1` (single isomer, unassigned) [Example B6, Isomer 2, 2-(1-(4-((1-(5-chloro-2-methoxypyridin-4-yl)-3-methylpiperidin-4-yl)oxy)phenyl)-3-cyano-4-methyl-4,5-dihydro-1H-pyrazol-5-yl)acetic acid] are within 1.5-fold of each other in EC50: 5790 nM for the first, 4850 nM for the second.

Going from `CCOc1ccc(F)c(N2CCC(Oc3ccc(N4N=C(c5ccc(C(=O)O)cc5F)[C@@H](C)[C@@H]4CC(=O)O)cc3)CC2)c1` [Example B4, 4-((4S,5S)-5-(carboxymethyl)-1-(4-((1-(5-ethoxy-2-fluorophenyl)piperidin-4-yl)oxy)phenyl)-4-methyl-4,5-dihydro-1H-pyrazol-3-yl)-3-fluorobenzoic acid] to `CCOc1ccc(F)c(N2CCC(Oc3ccc(N4N=C(c5ccc(C#N)c(C#N)c5)[C@@H](C)[C@@H]4CC(=O)O)cc3)CC2)c1` [Example 96, 2-((4S,5S)-3-(3,4-dicyanophenyl)-1-(4-((1-(5-ethoxy-2-fluorophenyl)piperidin-4-yl)oxy)phenyl)-4-methyl-4,5-dihydro-1H-pyrazol-5-yl)acetic acid], the EC50 falls from 4950 nM to 1570 nM (3.2-fold).

`COc1nc(N2CCC(Oc3ccc(N4N=C(C(F)(F)F)[C@@H](C)[C@@H]4CC(=O)O)cc3)CC2)ncc1F` [Example B29, 2-((4S,5S)-1-(4-((1-(5-Fluoro-4-methoxypyrimidin-2-yl)piperidin-4-yl)oxy)phenyl)-4-methyl-3-(trifluoromethyl)-4,5-dihydro-1H-pyrazol-5-yl)acetic acid] and `C[C@@H]1C(C(F)(F)F)=NN(c2ccc(OC3CCN(c4ncc(Cl)cn4)CC3)cc2)[C@H]1CC(=O)O` [Example 7, 2-((4S,5S)-1-(4-((1-(5-chloropyrimidin-2-yl)piperidin-4-yl)oxy)phenyl)-4-methyl-3-(trifluoromethyl)-4,5-dihydro-1H-pyrazol-5-yl)acetic acid] are within 1.5-fold of each other in EC50: 3680 nM for the first, 4480 nM for the second.

Going from `COc1ccc(F)c(N2CCC(Cc3ccc(N4N=C(C(F)(F)F)[C@@H](C)[C@@H]4CC(=O)O)cc3)CC2)c1` [Example 100, 2-((4S,5S)-1-(4-((1-(2-fluoro-5-methoxyphenyl)piperidin-4-yl)methyl)phenyl)-4-methyl-3-(trifluoromethyl)-4,5-dihydro-1H-pyrazol-5-yl)acetic acid] to `COc1ccc(F)c(N2CCCC(Oc3ccc(N4N=C(C(F)(F)F)[C@@H](C)[C@@H]4CC(=O)O)cc3)CC2)c1` (stereo partly drawn) [Example 23, 2-((4S,5S)-1-(4-((1-(2-fluoro-5-methoxyphenyl)azepan-4-yl)oxy)phenyl)-4-methyl-3-(trifluoromethyl)-4,5-dihydro-1H-pyrazol-5-yl)acetic acid], the EC50 rises from 266 nM to 3020 nM (11-fold).

Compared with `C[C@@H]1C(C(F)(F)F)=NN(c2ccc(OC3CCN(c4cc5c(cc4Cl)OCCO5)CC3)cc2)[C@H]1CC(=O)O` [Example B15, 2-((4S,5S)-1-(4-((1-(7-Chloro-2,3-dihydrobenzo[b][1,4]dioxin-6-yl)piperidin-4-yl)oxy)phenyl)-4-methyl-3-(trifluoromethyl)-4,5-dihydro-1H-pyrazol-5-yl)acetic acid], `C[C@@H]1C(C(F)(F)F)=NN(c2ccc(OC3CCN(c4nccs4)CC3)cc2)[C@H]1CC(=O)O` [Example 13, 2-((4S,5S)-4-methyl-1-(4-((1-(thiazol-2-yl)piperidin-4-yl)oxy)phenyl)-3-(trifluoromethyl)-4,5-dihydro-1H-pyrazol-5-yl)acetic acid] is 5.2-fold higher in EC50: 325 nM for the first, 1690 nM for the second.

`COc1cc(N2CCC(Cc3ccc(N4N=C(C(F)(F)F)[C@@H](C)[C@@H]4CC(=O)O)cc3)CC2)c(Cl)cn1` [Example B10, 2-((4S,5S)-1-(4-((1-(5-chloro-2-methoxypyridin-4-yl)piperidin-4-yl)methyl)phenyl)-4-methyl-3-(trifluoromethyl)-4,5-dihydro-1H-pyrazol-5-yl)acetic acid] and `COc1cc(N2CCC(Oc3ccc(N4N=C(C(F)(F)F)[C@@H](C)[C@@H]4CC(=O)O)cn3)C(C)C2)c(Cl)cn1` (single isomer, unassigned) [Example 103 Isomer 1] are within 1.5-fold of each other in EC50: 517 nM for the first, 533 nM for the second.

`C[C@@H]1C(C(F)(F)F)=NN(c2ccc(OCC3CN(S(=O)(=O)C4CCCCC4)C3)cc2)[C@H]1CC(=O)O` [Example B31, 2-((4S,5S)-1-(4-((1-(Cyclohexylsulfonyl)azetidin-3-yl)methoxy)phenyl)-4-methyl-3-(trifluoromethyl)-4,5-dihydro-1H-pyrazol-5-yl)acetic acid] and `COc1ccc(F)c(N2CC(COc3ccc(N4N=C(C(F)(F)F)[C@@H](C)[C@@H]4CC(=O)O)cc3)C2)c1` [Example B35, 2-((4S,5S)-1-(4-((1-(2-fluoro-5-methoxyphenyl)azetidin-3-yl)methoxy)phenyl)-4-methyl-3-(trifluoromethyl)-4,5-dihydro-1H-pyrazol-5-yl)acetic acid] are within 1.5-fold of each other in EC50: 3770 nM for the first, 4760 nM for the second.

Going from `C[C@@H]1C(C(F)(F)F)=NN(c2ccc(OC3CCN(C(=O)OCc4ccccc4)CC3)cc2)[C@H]1CC(=O)O` [Example 14, 2-((4S,5S)-1-(4-((1-((benzyloxy)carbonyl)piperidin-4-yl)oxy)phenyl)-4-methyl-3-(trifluoromethyl)-4,5-dihydro-1H-pyrazol-5-yl)acetic acid] to `C[C@@H]1C(C(F)(F)F)=NN(c2ccc(OC3CCN(C(=O)OC(C)(C)C)CC3)cc2)[C@H]1CC(=O)O` [Example 15, 2-((4S,5S)-1-(4-((1-(tert-butoxycarbonyl)piperidin-4-yl)oxy)phenyl)-4-methyl-3-(trifluoromethyl)-4,5-dihydro-1H-pyrazol-5-yl)acetic acid], the EC50 falls from 4270 nM to 1720 nM (2.5-fold). The second is the more potent here.

First: CCOc1ccc(F)c(N2CCC(Oc3ccc(N4N=C(C(F)(F)F)[C@@H](C)[C@@H]4CC(=O)O)cc3)C(Cc3ccccc3)C2)c1 (single isomer, unassigned) [Example 28 (Isomer 1)]
Second: CCOc1ccc(F)c(N2CCC(Cc3ccc(N4N=C(C(F)(F)F)[C@@H](C)[C@@H]4CC(=O)O)cc3)C(C)C2)c1 (single isomer, unassigned) [Example 3 (Isomer 1)]
The EC50 of the first is 24-fold lower: 132 nM for the first, 3220 nM for the second. The first is the more potent here.

Compared with `CCOc1ccc(F)c(N2CCC(Oc3ccc(N4N=C(C#N)C(C)C4CC(=O)O)cc3)C(C)C2)c1` (single isomer, unassigned) [Example B7, Isomer 1, 2-(3-Cyano-1-(4-((1-(5-ethoxy-2-fluorophenyl)-3-methylpiperidin-4-yl)oxy)phenyl)-4-methyl-4,5-dihydro-1H-pyrazol-5-yl)acetic acid], `COc1ccc(F)c(N2C3CCC2CC(Oc2ccc(N4N=C(C(F)(F)F)[C@@H](C)[C@@H]4CC(=O)O)cc2)C3)c1` (stereo partly drawn) [Example 2, 2-((4S,5S)-1-(4-((8-(2-fluoro-5-methoxyphenyl)-8-azabicyclo[3.2.1]octan-3-yl)oxy)phenyl)-4-methyl-3-(trifluoromethyl)-4,5-dihydro-1H-pyrazol-5-yl)acetic acid] is 1.6-fold higher in EC50: 394 nM for the first, 644 nM for the second. The first is the more potent here.

Compared with `C[C@@H]1C(C(F)(F)F)=NN(c2ccc(OC3CCN(c4cc(-c5ncco5)ccc4F)CC3)cc2)[C@H]1CC(=O)O` [Example B17, 2-((4S,5S)-1-(4-((1-(2-Fluoro-5-(oxazol-2-yl)phenyl)piperidin-4-yl)oxy)phenyl)-4-methyl-3-(trifluoromethyl)-4,5-dihydro-1H-pyrazol-5-yl)acetic acid], `Cc1nc(C)c(N2CCC(Oc3ccc(N4N=C(C(F)(F)F)[C@@H](C)[C@@H]4CC(=O)O)cc3)CC2)s1` [Example B16, 2-((4S,5S)-1-(4-((1-(2,4-Dimethylthiazol-5-yl)piperidin-4-yl)oxy)phenyl)-4-methyl-3-(trifluoromethyl)-4,5-dihydro-1H-pyrazol-5-yl)acetic acid] is 2.3-fold lower in EC50: 2490 nM for the first, 1100 nM for the second. The second is the more potent here.

`Cc1ccccc1S(=O)(=O)N1CCC(Oc2ccc(N3N=C(C(F)(F)F)[C@@H](C)[C@@H]3CC(=O)O)cc2)CC1` [Example B27, 2-((4S,5S)-4-Methyl-1-(4-((1-(o-tolylsulfonyl)piperidin-4-yl)oxy)phenyl)-3-(trifluoromethyl)-4,5-dihydro-1H-pyrazol-5-yl)acetic acid] and `C[C@@H]1C(C(F)(F)F)=NN(c2ccc(OC3CCN(c4cc(OC5CCCC5)cc(F)c4F)CC3)cc2)[C@H]1CC(=O)O` [Example 19, 2-((4S,5S)-1-(4-((1-(5-(cyclopentyloxy)-2,3-difluorophenyl)piperidin-4-yl)oxy)phenyl)-4-methyl-3-(trifluoromethyl)-4,5-dihydro-1H-pyrazol-5-yl)acetic acid] are within 1.5-fold of each other in EC50: 4850 nM for the first, 4820 nM for the second.

— patent US9604964B2, “Dihydropyrazole GPR40 modulators” (BRISTOL-MYERS SQUIBB COMPANY, priority 2012, dated 2017)
